Measured values: US11464825B2, “Adiponectin peptidomimetics for treating ocular disorders” (Allysta Pharmaceuticals, Inc., priority 2015, dated 2022)
Primed or numbered codes have the meaning given here. Where no end group is shown, it is not given here. [ ]: non-standard residue; d: D form. Dab′ = 2,3-diamino butyric acid; Nva = CCC[C@H](N)C(=O)O

Key:
[1] = system: experimental dry eye (EDE) mice; assay: Tear volume by phenol red thread tear test in experimental dry eye (EDE) mice; assay type: in vivo, C57BL/6 mice; conditions: 0.01% in BSS, 3 times a day; for tear production, as measured by tear volume, compared to untreated or BSS treated EDE mice: topical bilateral 2 μl/eye, day 5 and day 10 after treatment initiation, p-value <0.05 vs. EDE; for difference in tear volume among those treated with ADP355, ADP399 and globular adiponectin: topical, EDE mice
Description: (§1) Experimental dry eye (EDE) was induced in 8-week old female C57BL/6 mice by subcutaneous injection of 0.5 mg/0.2 mL scopolamine hydrobromide (Sigma-Aldrich, St. Louis, Mo.) three times a day (9 AM, 1:30 PM and 6 PM). A dose of 0.3 mL scopolamine hydrobromide was administered at each injection. The mice were also exposed to an air draft and 30% ambient humidity. 6 experimental groups used in this study included: (1) untreated control mice (UT; no dry eye treatment and no topical treatment); (2) untreated EDE control mice (EDE; received no topical administration); (3) EDE control mice received a balanced salt solution (BSS); (4) EDE mice received 0.01% single chain adiponectin peptidomimetic (ADP355) in BSS; (5) EDE mice receiving 0.01% peptide dimer adiponectin peptidomimetic (ADP399) in BSS; and (6) EDE mice receiving 0.01% recombinant globular adiponectin (gAdipo) in BSS. Each group included 5 mice. EDE mice treated with BSS received topical bilateral administration of […], 3 times a day. EDE mice treated with ADP355 received topical bilateral administration of 2 μl/eye, 3 times a day. EDE mice treated with ADP-399 received topical bilateral administration of 2 μl/eye, 3 times a day. The gAdipo treated mice served as a positive treatment control. Mice were evaluated at baseline, day 5 and day 10 after the treatment initiation. In some experiments, ADP355, ADP-399 and gAdipo were resuspended in 0.01% BSA.
Tear volume was measured using a phenol red thread tear test. Briefly, a cotton thread treated with phenol red at its tip (Zone-Quick; Oasis, Glendora, Calif.) was held with jeweler's forceps and placed in the tear meniscus of the lateral canthus for 20 secs to contact tear fluid. Using a microscope, the length of the red portion (wet portion) of the thread was measured in millimeters. A standard curve was derived to convert the distance measurement into tear volume.

[2] = system: experimental dry eye (EDE) mice; assay: Corneal fluorescein staining score in experimental dry eye (EDE) mice; assay type: in vivo, C57BL/6 mice; conditions: 0.01% in BSS, 3 times a day; for corneal staining (corneal irregularity) compared to untreated EDE mice: topical bilateral 2 μl/eye, score 0-4 averaged over five regions, day 5 and day 10, p-value <0.05 vs. EDE; for corneal surfaces compared to untreated normal mice (UT) and positive control globular adiponectin-treated mice (gAdipo): topical, EDE mice
Description: as §1
The severity of corneal epithelial damage was evaluated by corneal fluorescein staining. Briefly, 1% fluorescein dye (1 μl) was instilled into the eye and then the eye was washed with saline. 10 minutes after application of the dye, the eye was photographed with a slip lamp microscope using a cobalt blue light. The stained area was graded using a scoring system by two blinded observers. […] The average score from the five regions was recorded. […] In addition, the adiponectin peptidomimetic-treated mice (ADP355 and ADP-399) had corneal surfaces that were similar to those of untreated normal mice (UT) and positive control globular adiponectin-treated mice (gAdipo). The corneal surface scores in all groups at day 10 were similar to those at day 5 after treatment initiation.

## (DAsn-Ile-Pro-Nva-Leu-Tyr-DSer-Phe-Ala-DSer-His-Pro)2-Dab-NH2 ([dN]IP[Nva]LY[dS]FA[dS]HP[Dab′]-NH2; also: branched dimer: two chains joined via Dab) [ADP399, linear branched dimer of ADP355]
[1]
  tear production, as measured by tear volume, compared to untreated or BSS treated EDE mice: higher
  difference in tear volume among those treated with ADP355, ADP399 and globular adiponectin: no significant difference
[2]
  corneal staining (corneal irregularity) compared to untreated EDE mice: less corneal staining
  corneal surfaces compared to untreated normal mice (UT) and positive control globular adiponectin-treated mice (gAdipo): similar

## DAsn-Ile-Pro-Nva-Leu-Tyr-DSer-Phe-Ala-DSer-NH2 ([dN]IP[Nva]LY[dS]FA[dS]-NH2; N-terminus assumed; SMILES CCC[C@H](NC(=O)[C@@H]1CCCN1C(=O)[C@@H](NC(=O)[C@H](N)CC(N)=O)[C@@H](C)CC)C(=O)N[C@@H](CC(C)C)C(=O)N[C@@H](Cc1ccc(O)cc1)C(=O)N[C@H](CO)C(=O)N[C@@H](Cc1ccccc1)C(=O)N[C@@H](C)C(=O)N[C@H](CO)C(N)=O) [ADP355, single chain adiponectin peptidomimetic]
[1]
  tear production, as measured by tear volume, compared to untreated or BSS treated EDE mice: higher
  difference in tear volume among those treated with ADP355, ADP399 and globular adiponectin: no significant difference
[2]
  corneal staining (corneal irregularity) compared to untreated EDE mice: less corneal staining
  corneal surfaces compared to untreated normal mice (UT) and positive control globular adiponectin-treated mice (gAdipo): similar
